Article PMC9640980, “Pharmacological evaluation of enantiomerically separated positive allosteric modulators of cannabinoid 1 receptor, GAT591 and GAT593” (Frontiers in Pharmacology, 2022)

Tests used:
human CB1R (hCB1R) [1] = target: T1, human CB1R (hCB1R) (Homo sapiens, UniProt P21554); assay: HitHunter cAMP inhibition assay in hCB1R CHO-K1 cells (10 µM forskolin); format: cell-based; conditions: value (95% CI)
T1 construct: host or cells: CHO-K1 (PathHunter βarrestin2 line)
Method: (§1) HitHunter (cAMP) and PathHunter (βarrestin2) Chinese hamster ovary (CHO)-K1 cells stably-expressing human CB1R (hCB1R) from DiscoveRx (Eurofins, Freemont, CA) were maintained at 37°C, 5% CO2 in DMEM/F-12 containing 10% fetal bovine serum (FBS) and 5 U × 10^4 U penicillin/streptomycin (ThermoFisher, Mississauga, ON). In addition, 800 μg/ml geneticin was used for CHO-K1 hCB1R HitHunter cAMP cells and 800 μg/ml geneticin and 300 μg/ml hygromycin B was used for CHO-K1 hCB1R PathHunter βarrestin2 cells.
cAMP inhibition was performed in the presence of 10 µM forskolin (FSK) using the DiscoveRx HitHunter assay in hCB1R CHO-K1 cells. Cells (16,000 cells/well in 96 well plates) were incubated overnight in Opti-MEM (Invitrogen) containing 1% FBS at 37°C and 5% CO2. Opti-MEM media was removed and replaced with cell assay buffer (DiscoveRx) and then cells were simultaneously treated with 10 µM FSK and experimental compounds (0.10 nM–10 µM) for 90 min cAMP antibody solution and working detection solutions were added according to the manufacturer’s protocol (DiscoveRx), and cells were incubated for 60 min at room temperature. cAMP solution A was added according to the manufacturer’s protocol (DiscoveRx) and cells were incubated for an additional 60 min at room temperature before chemiluminescence was measured on a Cytation5 plate reader (top read, gain 200, integration time 10 s).
(§2) Data related to EC50 and E max in Figures 3, 4 were obtained with nonlinear regression models (3-parameter model, GraphPad Prism 9.0, San Diego, CA). […] Significance was determined by one- or two-way ANOVA followed by Tukey’s or Bonferroni’s post-hoc test as indicated. p < 0.05 was considered significant and p values were only employed where ANOVA was used. Data related to Figure 5 was analyzed in GraphPad Prism 9.0 was used to analyze in vivo data and p < 0.05 was considered to be statistically significant. Data are expressed as mean ± SEM. Group sizes for all experiments are described in figure legends.

human CB1R (hCB1R) [2] = target: T1, human CB1R (hCB1R); assay: PathHunter βarrestin2 recruitment assay in hCB1R CHO-K1 cells; format: cell-based; conditions: for βarrestin2 recruitment to hCB1R, in words: as agonist (and PAM where stated), Figures 3B,D; for EC50: compound alone, hCB1R CHO-K1, 90 min, value (95% CI), Figure 3B, read-out: EC50 (nM) 95% C.I., βarrestin2 recruitment as agonist
Method: as §1
βarrestin2 recruitment was determined using the hCB1R CHO-K1 cell PathHunter assay (DiscoveRx). Cells (16,000 cells/well in 96 well plates) were incubated overnight in Opti-MEM (Invitrogen) containing 1% FBS at 37°C and 5% CO2. Cells were then simultaneously treated with experimental compounds (0.10 nM–10 µM) for 90 min. Detection solution was added to cells according to the manufacturer’s protocol (DiscoveRx), and cells were incubated for 60 min at room temperature. Chemiluminescence was measured on a Cytation5 plate reader (top read, gain 200, integration time 10 s).
as §2

hCB1R [3] = target: T2, hCB1R (Homo sapiens, UniProt P21554); assay: [3H]CP55,940 radioligand binding to hCB1R CHO-K1 cell membranes; conditions: for Emax ± S.E.M., [3H]CP55,940 bound: 1 nM [3H]CP55,940, Figure 4A
T2 construct: expressed in transfected cells; host or cells: CHO-K1 cell membranes
T2 sequence (P21554 whole entry): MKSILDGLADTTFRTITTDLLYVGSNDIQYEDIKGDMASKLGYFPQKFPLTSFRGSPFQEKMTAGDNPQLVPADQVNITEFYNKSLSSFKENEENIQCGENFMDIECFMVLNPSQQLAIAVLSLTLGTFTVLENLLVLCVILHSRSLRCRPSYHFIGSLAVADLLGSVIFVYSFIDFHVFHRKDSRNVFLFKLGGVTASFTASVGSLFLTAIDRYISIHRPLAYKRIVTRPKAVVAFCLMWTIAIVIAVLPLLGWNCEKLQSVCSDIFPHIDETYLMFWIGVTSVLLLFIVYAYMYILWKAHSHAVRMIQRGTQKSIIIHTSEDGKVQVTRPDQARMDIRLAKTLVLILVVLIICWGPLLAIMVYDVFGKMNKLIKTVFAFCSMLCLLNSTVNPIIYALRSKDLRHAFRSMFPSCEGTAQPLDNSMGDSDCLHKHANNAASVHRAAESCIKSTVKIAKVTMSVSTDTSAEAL
Method: The assay began with the addition of transfected hCB1R CHO-K1 cell membranes (25 µg protein per well). The assays were left to equilibrate at room temperature for 2 h before vacuum filtration using a Millipore Sigma 12-well sampling manifold and filter paper that had been soaked in wash buffer. Each reaction well was washed 3 times with a 2 ml aliquot of Tris-binding buffer. The filters were removed then submerged in 5 ml of scintillation fluid (Ultima Gold F, PerkinElmer, Buckinghamshire, United Kingdom). Radioactivity was quantified by liquid scintillation spectrometry.
as §2

hCB1R [4] = target: T2, hCB1R; assay: [35S]GTPγS G protein coupling assay, membranes of CHO-K1 cells overexpressing hCB1R; format: biochemical; conditions: absence of orthosteric agonist, Figure 4B; for EC50: value (95% CI), read-out: EC50 (nM) 95% C.I., [35S]GTPγS binding, compound alone
Method: This assay was conducted as described in previous reports ([Garai et al., 2020]). To summarize, the assay was completed in the presence of [35S]GTPγS (0.1 nM), GDP (30 µM), GTPγS (30 µM) using membranes derived from CHO-K1 cells (1 mg/ml) overexpressing hCB1R. Assay buffer consisted of 50 mM Tris, 10 mM MgCl2, 100 mM NaCl, 0.2 mM EDTA and 1 mM dithiothreitol (DTT) at pH 7.4. Membranes were incubated at 30°C for 90 min in a total volume of […]. Reactions were ended by the addition of ice-cold wash buffer (50 mM Tris and 1 mg/ml BSA, pH 7.4) followed by rapid filtration under vacuum through pre-soaked Whatman GF/B glass-fibre filters in a 24-well sampling manifold (Brandel Cell Harvester; Brandel Inc., Gaithersburg, MD, United States). Reaction wells were washed six times with a 1.2 ml aliquots of Tris-binding buffer. Filters were subsequently oven-dried for 60 min and placed in 3 ml of scintillation fluid (Ultima Gold XR, PerkinElmer). Bound radioactivity was determined by liquid scintillation counting. Basal [35S]GTPγS binding was determined in the presence of […] GDP without any compounds present. Non-specific binding was determined in the presence of […] GTPγS.
as §2

male C57BL/6 mice [5] = assay: Triad assessment in mice: catalepsy (bar holding assay); format: in vivo, mouse; conditions: for catalepsy, compound alone: 0.1, 1, 3, or 10 mg/kg i.p. compared to vehicle, male C57BL/6 mice, Figure 5A; for cataleptic effect, co-administered with THC: 3 and 10 mg/kg i.p. + sub-threshold 1 mg/kg THC, Figure 5D
Method: (§3) Male C57BL/6 mice (Charles River, Senneville, QC) between 4 and 7 months of age were used for these studies. Animals were group housed at the Laboratory Animal Services Unit (LASU) at the University of Saskatchewan (3-5 animals/cage) with a standard 12:12 light-dark cycle, ad libitum access to food and water, and environmental enrichment. Compounds administered intraperitoneally (i.p.) were prepared in vehicle [ethanol and cremophor in saline (1:1:8)]. Catalepsy was assessed in the bar holding assay 5 min after drug administration. Mice were placed so that their forepaws clasped a 0.7 cm ring clamp positioned 4.5 cm above the surface of the testing space ([Zagzoog et al., 2021]). The length of time the ring was held was recorded in seconds. The trial ended if the mouse turned its head or body or made 3 consecutive escape attempts to a maximum of 60 s. Body temperature was measured by rectal thermometer 15 min after drug administration. Anti-nociceptive effects were measured in the warm water (52 ± 2°C) tail-flick test 20 min after drug administration. Response in this case was defined by the removal of the tail from the warm water, with a maximal response time of 20 s. Catalepsy and tail flick data are presented as percent maximum possible effect (MPE). Compounds were administered at the doses indicated. Experimenters were blinded to treatment for all behavioral assessments and analyses. Animals were purchased, rather than bred, to reduce animal numbers. In all cases, experiments were performed with the approval of the University Animal Care Committee (UACC) at the University of Saskatchewan and are in keeping with the guidelines of the Canadian Council on Animal Care (CCAC) and the ARRIVE guidelines ([Kilkenny et al., 2010]).

male C57BL/6 mice [6] = assay: Triad assessment in mice: body temperature (rectal thermometer); format: in vivo, mouse; conditions: for hypothermia, compound alone: 0.1, 1, 3, or 10 mg/kg i.p. compared to vehicle, male C57BL/6 mice, Figure 5B; for hypothermic effect, co-administered with THC: 3 and 10 mg/kg i.p. + sub-threshold 1 mg/kg THC, Figure 5E
Method: as §3

male C57BL/6 mice [7] = assay: Triad assessment in mice: nociception (warm water tail-flick test); format: in vivo, mouse; conditions: for anti-nociceptive effects (tail flick), compound alone: 0.1, 1, 3, or 10 mg/kg i.p. compared to vehicle, male C57BL/6 mice, Figure 5C; for anti-nociceptive effect (tail flick), co-administered with THC: 3 and 10 mg/kg i.p. + sub-threshold 1 mg/kg THC, Figure 5F
Method: as §3

male C57BL/6 mice [8] = test system: male C57BL/6 mice; set-up: method as in Garai et al., 2020; conditions: 0.1, 1, 3, or 10 mg/kg (i.p.) compared to vehicle; ref Garai et al., 2020; cited from earlier work
male C57BL/6 mice [9] = test system: male C57BL/6 mice; set-up: method as in Garai et al., 2020; conditions: 0.1, 1, 3, or 10 mg/kg (i.p.) compared to vehicle; ref Garai et al., 2020; cited from earlier work; remark: listed apart in the source
male C57BL/6 mice [10] = test system: male C57BL/6 mice; set-up: method as in Garai et al., 2020; conditions: significant relative to vehicle at 3 and 10 mg/kg; ref Garai et al., 2020; cited from earlier work
[11] = 100 nM CP55,940 + compound, Figure 3C, read-out: EC50 (nM) 95% C.I., cAMP inhibition as PAM
[12] = compound alone, hCB1R CHO-K1, 90 min, Figure 3A, read-out: EC50 (nM) 95% C.I., cAMP inhibition as agonist

T1 sequence (P21554 whole entry): as above

Structure (SMILES) | EC50 (human CB1R (hCB1R) [1]; [11]) [nM] | EC50 (human CB1R (hCB1R) [1]; [12]) [nM] | βarrestin2 recruitment to hCB1R, in words (human CB1R (hCB1R) [2]) | EC50 (human CB1R (hCB1R) [2]) [nM] | EC50 (hCB1R [3]) [nM] | Emax ± S.E.M., [3H]CP55,940 bound (hCB1R [3]) [% radioligand bound] | Emax ± S.E.M., [35S]GTPγS binding, compound alone (hCB1R [4]) | EC50 (hCB1R [4]) [nM] | catalepsy, compound alone (male C57BL/6 mice [5]) | cataleptic effect, co-administered with THC (male C57BL/6 mice [5]) | hypothermia, compound alone (male C57BL/6 mice [6]) | hypothermic effect, co-administered with THC (male C57BL/6 mice [6]) | anti-nociceptive effects (tail flick), compound alone (male C57BL/6 mice [7]) | anti-nociceptive effect (tail flick), co-administered with THC (male C57BL/6 mice [7]) | catalepsy, racemate alone (male C57BL/6 mice [8]) | hypothermia, racemate alone (male C57BL/6 mice [9]) | anti-nociceptive effect in the tail flick assay, racemate alone (male C57BL/6 mice [10])
O=[N+]([O-])C[C@@H](c1ccccc1F)c1c(-c2cccc(F)c2)[nH]c2c(F)cccc12 [GAT1667] | 1.8 | 1.7 | recruited βarrestin2 as low-potency agonists and PAMs | > 10000 | 28 | 230 ± 5.4 | 34 ± 2.3 % stimulation above baseline | 8 | did not produce | significant | did not produce | significant | did not produce | significant | – | – | –
O=[N+]([O-])CC(c1ccccc1F)c1c(-c2cccc(F)c2)[nH]c2cc(F)ccc12 (stereo not shown) [GAT591] | – | – | – | – | – | – | – | – | – | – | – | – | – | – | did not produce | did not produce | dose-dependent anti-nociceptive effect
O=[N+]([O-])C[C@@H](c1ccccc1F)c1c(-c2cccc(F)c2)[nH]c2cc(F)ccc12 [GAT1665] | 8.6 | 1.1 | recruited βarrestin2 as low-potency agonists and PAMs | > 10000 | 140 | 190 ± 8.5 | 41 ± 4.2 % stimulation above baseline | 21 | did not produce | significant | did not produce | significant | did not produce | significant | – | – | –
